Laboratory results from ChEMBL document CHEMBL2157874, “First total synthesis of prasinic acid and its anticancer activity” (Bioorg Med Chem Lett, 2012).

How the values were obtained:
HCT-116 = experiment: Cytotoxicity against human HCT116 cells after 48 hrs by modified propidium iodide assay; assay type: functional, cell-based; conditions: HCT-116, 48 h
MCF-10A = experiment: Cytotoxicity against human MCF10A cells after 48 hrs by modified propidium iodide assay; assay type: cell-based
Calu-1 = experiment: Cytotoxicity against human Calu1 cells after 48 hrs by modified propidium iodide assay; assay type: functional, cell-based; conditions: Calu-1, 48 h
PANC-1 = experiment: Cytotoxicity against human PANC1 cells after 48 hrs by modified propidium iodide assay; assay type: functional, cell-based; conditions: PANC-1, 48 h
NCI-H460 = experiment: Cytotoxicity against human H460 cells after 48 hrs by modified propidium iodide assay; assay type: functional, cell-based; conditions: NCI-H460, 48 h
ACHN = experiment: Cytotoxicity against human ACHN cells after 48 hrs by modified propidium iodide assay; assay type: functional, cell-based

Compound CCCCCCCc1cc(OC(=O)c2c(O)cc(O)cc2CCCCCCC)cc(O)c1C(=O)O [PRASINIC ACID] has an IC50 (HCT-116) of 7.8 µM, an IC50 (MCF-10A) of over 30 µM and an IC50 (Calu-1) of 4.3 µM. The IC50 (PANC-1) was 8.5 µM, the IC50 (NCI-H460) was 9.1 µM and the IC50 (ACHN) was 8.2 µM.
